# Columns and labels:
# Assay in all cases: KINOMEscan competition binding
# Conditions in all cases: compound 10.0 µM
# [1] = system: EGFR (human), P00533 [G719S]
# DCLK2 (human) = DCLK2 (human) (UniProt Q8N568)
# GAK (human) = GAK (human) (UniProt O14976)
# ROS1 (human) = ROS1 (human) (UniProt P08922)
# PTK2B (human) = PTK2B (human) (UniProt Q14289)
# DCLK1 (human) = DCLK1 (human) (UniProt O15075)
# RPS6KA1 KD2 (human) = RPS6KA1 KD2 (human) (UniProt Q15418)
# PLK4 (human) = PLK4 (human) (UniProt O00444)
# MYLK (human) = MYLK (human) (UniProt Q15746)
# PLK3 (human) = PLK3 (human) (UniProt Q9H4B4)
# INSR (human) = INSR (human) (UniProt P06213)
# TNK1 (human) = TNK1 (human) (UniProt Q13470)
# RPS6KA2 KD2 (human) = RPS6KA2 KD2 (human) (UniProt Q15349)
# FER (human) = FER (human) (UniProt P16591)
# [2] = system: EGFR (human), P00533 [G719C; 746-750 del]
# [3] = system: EGFR (human), P00533 [747-751 del / S ins]
# DAPK2 (human) = DAPK2 (human) (UniProt Q9UIK4)
# RPS6KA6 KD2 (human) = RPS6KA6 KD2 (human) (UniProt Q9UK32)
# PTK2 (human) = PTK2 (human) (UniProt Q05397)
# [4] = system: EGFR (human), P00533 [L858R]
# [5] = system: EGFR (human), P00533 [752-759 del]
# AKT3 (human) = AKT3 (human) (UniProt Q9Y243)
# ALK (human) = ALK (human) (UniProt Q9UM73)
# CSNK1E (human) = CSNK1E (human) (UniProt P49674)
# [6] = system: EGFR (human), P00533 [A750P; 747-749 del]
# EGFR (human) = EGFR (human) (UniProt P00533)
# STK4 (human) = STK4 (human) (UniProt Q13043)
# TTK (human) = TTK (human) (UniProt P33981)
# STK33 (human) = STK33 (human) (UniProt Q9BYT3)
# INSRR (human) = INSRR (human) (UniProt P14616)
# DAPK3 (human) = DAPK3 (human) (UniProt O43293)
# DMPK (human) = DMPK (human) (UniProt Q09013)
# ULK2 (human) = ULK2 (human) (UniProt Q8IYT8)
# PRKD1 (human) = PRKD1 (human) (UniProt Q15139)
# PLK1 (human) = PLK1 (human) (UniProt P53350)
# [7] = system: EGFR (human), P00533 [P753S; 747-752 del]
# Sequence of PTK2 (human) (Q05397 whole entry, looked up): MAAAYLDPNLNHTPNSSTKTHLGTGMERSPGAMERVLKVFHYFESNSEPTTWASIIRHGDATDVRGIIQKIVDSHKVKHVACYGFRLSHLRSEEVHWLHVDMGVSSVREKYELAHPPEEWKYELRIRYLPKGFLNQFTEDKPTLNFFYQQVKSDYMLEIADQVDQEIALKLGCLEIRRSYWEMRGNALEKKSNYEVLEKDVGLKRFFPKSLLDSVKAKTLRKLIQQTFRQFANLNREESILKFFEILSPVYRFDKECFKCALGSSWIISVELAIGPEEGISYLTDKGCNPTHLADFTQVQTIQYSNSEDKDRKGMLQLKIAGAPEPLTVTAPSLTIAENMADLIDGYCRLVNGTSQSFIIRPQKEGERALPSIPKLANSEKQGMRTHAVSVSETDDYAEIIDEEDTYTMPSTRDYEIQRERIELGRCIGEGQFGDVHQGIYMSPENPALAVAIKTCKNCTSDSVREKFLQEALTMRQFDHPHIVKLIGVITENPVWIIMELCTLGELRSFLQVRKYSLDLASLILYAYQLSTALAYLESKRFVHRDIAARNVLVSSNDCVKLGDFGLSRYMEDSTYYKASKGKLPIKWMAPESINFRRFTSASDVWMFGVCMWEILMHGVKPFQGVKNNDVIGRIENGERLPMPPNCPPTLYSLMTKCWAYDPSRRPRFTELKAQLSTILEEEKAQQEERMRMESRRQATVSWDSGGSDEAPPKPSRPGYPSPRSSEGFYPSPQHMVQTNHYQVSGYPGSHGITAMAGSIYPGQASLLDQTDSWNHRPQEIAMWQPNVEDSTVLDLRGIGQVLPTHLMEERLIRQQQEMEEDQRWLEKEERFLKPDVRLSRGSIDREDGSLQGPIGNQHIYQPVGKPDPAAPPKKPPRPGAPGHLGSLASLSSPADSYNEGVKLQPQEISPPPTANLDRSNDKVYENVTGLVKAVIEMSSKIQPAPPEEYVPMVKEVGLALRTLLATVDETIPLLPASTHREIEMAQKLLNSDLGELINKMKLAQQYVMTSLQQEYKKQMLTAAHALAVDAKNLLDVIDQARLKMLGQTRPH
# Sequence of DCLK2 (human) (Q8N568 whole entry, looked up): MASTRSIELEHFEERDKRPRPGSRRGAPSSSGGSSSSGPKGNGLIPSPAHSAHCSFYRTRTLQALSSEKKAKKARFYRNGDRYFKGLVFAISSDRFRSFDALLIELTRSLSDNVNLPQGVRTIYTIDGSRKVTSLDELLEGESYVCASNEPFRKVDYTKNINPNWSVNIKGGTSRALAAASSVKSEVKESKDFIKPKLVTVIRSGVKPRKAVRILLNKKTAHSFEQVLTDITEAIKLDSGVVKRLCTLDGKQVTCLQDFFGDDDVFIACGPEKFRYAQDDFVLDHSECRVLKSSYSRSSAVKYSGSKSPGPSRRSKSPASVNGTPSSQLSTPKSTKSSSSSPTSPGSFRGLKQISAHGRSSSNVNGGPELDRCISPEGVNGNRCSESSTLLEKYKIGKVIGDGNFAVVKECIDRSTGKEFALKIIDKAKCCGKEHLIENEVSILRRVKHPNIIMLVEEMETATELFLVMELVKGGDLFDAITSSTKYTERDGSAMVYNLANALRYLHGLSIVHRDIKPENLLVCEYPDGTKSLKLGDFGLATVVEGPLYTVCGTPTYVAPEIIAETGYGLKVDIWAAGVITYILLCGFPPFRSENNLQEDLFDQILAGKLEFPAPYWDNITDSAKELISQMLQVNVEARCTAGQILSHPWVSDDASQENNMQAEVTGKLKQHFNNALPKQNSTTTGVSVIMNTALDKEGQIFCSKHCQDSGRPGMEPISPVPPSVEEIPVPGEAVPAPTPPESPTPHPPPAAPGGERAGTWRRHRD
# Sequence of PLK1 (human) (P53350 whole entry, looked up): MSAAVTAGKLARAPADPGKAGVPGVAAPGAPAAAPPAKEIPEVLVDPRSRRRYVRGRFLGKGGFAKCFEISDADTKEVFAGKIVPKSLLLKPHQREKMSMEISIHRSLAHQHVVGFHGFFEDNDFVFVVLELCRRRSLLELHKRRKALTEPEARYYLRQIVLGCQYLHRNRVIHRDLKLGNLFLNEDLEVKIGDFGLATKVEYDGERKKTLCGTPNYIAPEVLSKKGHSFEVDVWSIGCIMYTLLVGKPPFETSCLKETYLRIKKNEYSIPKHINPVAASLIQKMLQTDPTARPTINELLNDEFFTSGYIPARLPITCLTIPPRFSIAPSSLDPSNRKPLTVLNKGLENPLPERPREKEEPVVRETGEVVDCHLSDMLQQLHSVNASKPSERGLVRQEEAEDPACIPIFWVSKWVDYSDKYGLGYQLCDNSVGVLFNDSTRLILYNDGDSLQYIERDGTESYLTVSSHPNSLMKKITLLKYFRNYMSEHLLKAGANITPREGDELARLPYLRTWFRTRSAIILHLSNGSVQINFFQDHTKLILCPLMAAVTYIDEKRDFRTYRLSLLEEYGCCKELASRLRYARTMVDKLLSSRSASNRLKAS
# Sequence of RPS6KA6 KD2 (human) (Q9UK32 whole entry, looked up): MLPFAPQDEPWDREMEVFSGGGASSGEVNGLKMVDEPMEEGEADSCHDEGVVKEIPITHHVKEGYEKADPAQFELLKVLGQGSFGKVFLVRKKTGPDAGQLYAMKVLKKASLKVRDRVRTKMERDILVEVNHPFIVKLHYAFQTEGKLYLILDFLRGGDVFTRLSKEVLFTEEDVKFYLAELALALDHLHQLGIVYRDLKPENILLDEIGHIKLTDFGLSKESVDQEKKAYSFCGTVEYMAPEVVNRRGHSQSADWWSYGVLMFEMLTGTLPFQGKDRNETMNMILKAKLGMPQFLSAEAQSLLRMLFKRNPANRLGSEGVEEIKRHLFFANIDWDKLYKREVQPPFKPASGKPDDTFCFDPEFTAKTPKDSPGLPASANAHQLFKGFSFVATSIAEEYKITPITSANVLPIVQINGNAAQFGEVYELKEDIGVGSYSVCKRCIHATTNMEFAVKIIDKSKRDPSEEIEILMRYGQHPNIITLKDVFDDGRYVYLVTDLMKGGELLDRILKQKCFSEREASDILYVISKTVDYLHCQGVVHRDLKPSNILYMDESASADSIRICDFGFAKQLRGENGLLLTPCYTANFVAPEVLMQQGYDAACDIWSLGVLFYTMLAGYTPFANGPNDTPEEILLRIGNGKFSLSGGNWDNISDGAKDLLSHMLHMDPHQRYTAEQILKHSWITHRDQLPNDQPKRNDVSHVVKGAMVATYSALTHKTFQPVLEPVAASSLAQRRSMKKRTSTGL
# Sequence of TTK (human) (P33981 whole entry, looked up): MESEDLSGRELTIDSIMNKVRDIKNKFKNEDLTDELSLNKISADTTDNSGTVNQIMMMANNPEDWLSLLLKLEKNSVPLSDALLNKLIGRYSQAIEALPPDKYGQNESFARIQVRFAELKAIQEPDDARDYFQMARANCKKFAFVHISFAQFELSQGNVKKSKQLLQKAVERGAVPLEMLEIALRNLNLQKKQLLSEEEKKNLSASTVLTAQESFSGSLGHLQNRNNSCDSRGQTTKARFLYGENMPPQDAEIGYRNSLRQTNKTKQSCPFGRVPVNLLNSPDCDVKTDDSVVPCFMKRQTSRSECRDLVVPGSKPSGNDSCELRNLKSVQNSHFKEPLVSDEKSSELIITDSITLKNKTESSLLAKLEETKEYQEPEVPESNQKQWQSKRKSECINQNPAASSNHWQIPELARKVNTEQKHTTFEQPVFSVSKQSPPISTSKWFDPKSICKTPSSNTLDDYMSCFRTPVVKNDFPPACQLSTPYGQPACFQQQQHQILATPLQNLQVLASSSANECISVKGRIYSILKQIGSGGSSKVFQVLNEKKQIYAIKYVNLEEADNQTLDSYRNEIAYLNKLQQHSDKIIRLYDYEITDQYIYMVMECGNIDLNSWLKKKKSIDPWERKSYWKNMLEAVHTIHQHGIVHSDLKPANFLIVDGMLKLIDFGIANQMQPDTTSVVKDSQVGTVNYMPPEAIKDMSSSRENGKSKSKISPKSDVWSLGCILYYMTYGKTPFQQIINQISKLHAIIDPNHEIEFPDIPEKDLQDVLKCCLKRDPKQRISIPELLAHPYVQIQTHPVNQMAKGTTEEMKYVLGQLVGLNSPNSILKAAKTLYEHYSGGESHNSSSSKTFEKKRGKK
# Sequence of DAPK2 (human) (Q9UIK4 whole entry, looked up): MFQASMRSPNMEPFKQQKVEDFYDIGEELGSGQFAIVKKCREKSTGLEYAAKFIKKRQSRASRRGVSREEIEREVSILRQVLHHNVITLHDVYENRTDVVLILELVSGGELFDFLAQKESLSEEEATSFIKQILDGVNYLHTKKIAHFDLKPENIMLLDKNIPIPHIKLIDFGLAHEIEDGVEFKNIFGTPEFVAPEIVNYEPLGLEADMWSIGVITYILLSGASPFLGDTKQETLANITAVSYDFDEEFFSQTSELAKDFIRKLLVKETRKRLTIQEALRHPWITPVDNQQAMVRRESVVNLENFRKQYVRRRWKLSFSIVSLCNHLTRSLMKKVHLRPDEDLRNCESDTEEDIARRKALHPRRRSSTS
# Sequence of STK4 (human) (Q13043 whole entry, looked up): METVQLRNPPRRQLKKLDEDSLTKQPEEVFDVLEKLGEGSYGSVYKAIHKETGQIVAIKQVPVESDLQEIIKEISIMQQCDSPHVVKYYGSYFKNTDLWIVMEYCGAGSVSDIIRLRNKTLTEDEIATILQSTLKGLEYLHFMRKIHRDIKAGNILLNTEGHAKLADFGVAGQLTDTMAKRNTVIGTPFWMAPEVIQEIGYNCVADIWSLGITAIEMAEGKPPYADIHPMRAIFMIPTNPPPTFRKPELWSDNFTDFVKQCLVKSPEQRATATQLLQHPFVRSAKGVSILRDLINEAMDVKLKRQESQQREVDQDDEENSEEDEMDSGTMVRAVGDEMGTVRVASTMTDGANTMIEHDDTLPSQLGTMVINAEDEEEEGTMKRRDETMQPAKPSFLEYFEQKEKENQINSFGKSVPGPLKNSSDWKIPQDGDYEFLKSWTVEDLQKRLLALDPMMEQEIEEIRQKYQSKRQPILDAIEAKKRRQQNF
smiles,measurement,setting,value
COc1cc(N2CCN(CCO)CC2)ccc1Nc1ncc2c(n1)N(C1CCCC1)CCC(=O)N2C,"kinase still bound, per cent of control",[1],31%
same,"kinase still bound, per cent of control",DCLK2 (human),14%
same,"kinase still bound, per cent of control",GAK (human),1.4%
same,"kinase still bound, per cent of control",ROS1 (human),0%
same,"kinase still bound, per cent of control",PTK2B (human),13%
same,"kinase still bound, per cent of control",DCLK1 (human),4.2%
same,"kinase still bound, per cent of control",RPS6KA1 KD2 (human),32%
same,"kinase still bound, per cent of control",PLK4 (human),9.4%
same,"kinase still bound, per cent of control",MYLK (human),14%
same,"kinase still bound, per cent of control",PLK3 (human),12%
same,"kinase still bound, per cent of control",INSR (human),30%
same,"kinase still bound, per cent of control",TNK1 (human),20%
same,"kinase still bound, per cent of control",RPS6KA2 KD2 (human),16%
same,"kinase still bound, per cent of control",FER (human),24%
same,"kinase still bound, per cent of control",[2],28%
same,"kinase still bound, per cent of control",[3],20%
same,"kinase still bound, per cent of control",DAPK2 (human),32%
same,"kinase still bound, per cent of control",RPS6KA6 KD2 (human),20%
same,"kinase still bound, per cent of control",PTK2 (human),3.4%
same,"kinase still bound, per cent of control",[4],31%
same,"kinase still bound, per cent of control",[5],23%
same,"kinase still bound, per cent of control",AKT3 (human),0%
same,"kinase still bound, per cent of control",ALK (human),11%
same,"kinase still bound, per cent of control",CSNK1E (human),0%
same,"kinase still bound, per cent of control",[6],18%
same,"kinase still bound, per cent of control",EGFR (human),29%
same,"kinase still bound, per cent of control",STK4 (human),0%
same,"kinase still bound, per cent of control",TTK (human),1.8%
same,"kinase still bound, per cent of control",STK33 (human),7.2%
same,"kinase still bound, per cent of control",INSRR (human),32%
same,"kinase still bound, per cent of control",DAPK3 (human),28%
same,"kinase still bound, per cent of control",DMPK (human),0%
same,"kinase still bound, per cent of control",ULK2 (human),2%
same,"kinase still bound, per cent of control",PRKD1 (human),29%
same,"kinase still bound, per cent of control",PLK1 (human),0%
same,"kinase still bound, per cent of control",[7],24%

# From the kinase profiling compilation of Christmann-Franck et al. (2016)
